Literature values as cited in patent publication US20090011476A1, “GENE CLUSTER AND METHOD FOR THE BIOSYNTHESIS OF TERREQUINONE A” (Wisconsin Alumni Research Foundation, priority 2005, published 2009).

System: tumor cell lines
Details: literature statement, values not given

For terrequinone A, the “inhibitory properties on tumor cell lines” value is given as “inhibitory properties”.
